Each structure is given as a SMILES string.

Experiment [1] has as its system Inflammatory Colonic Pain Induced by Intramural Injection of Formalin 5%. As to the kind of experiment: Inflammatory colonic pain induced by intramural injection of formalin 5% in rats. It counts as in vivo, Adult female Sprague-Dawley rats. Particulars: for % Antinociception: intracolonic formalin 5%, 50 µL/rat; for pain score induced by intracolonic formalin (in words): gabapentin 100, 300, 500 mg/kg sc, CI-1008 100, 200 mg/kg sc. On the procedure:
The GABA analogs were evaluated in another model to determine their effect on inflammatory visceral pain.
Administration of formalin into the wall of the rat colon causes acute inflammation and visceral pain. The aim of this study was to evaluate the antinociceptive activity of gabapentin and CI-1008 in visceral pain induced by colonic intrapariental injection of formalin.
Adult female Sprague-Dawley rats weighing 240 to 260 g were used in the study. The animals were housed three per cage in a regulated environment (20 ± 1°C 50 ± 5% humidity, with light 8:00 AM to 8:00 PM) prior to use in the test.
Each test animal was placed in a transparent plastic cage (27 x 43 x 25 cm) with a layer of wood shavings on the floor. Drinking water was available. Cages were placed in such a way that visual interaction between animals was avoided. A mirror was positioned behind each cage to improve the recording of behaviors. Each animal was initially allowed 20 minutes to get used to its surroundings. Anesthesia was then achieved by using isofurane (starting 4%, then 1.5% in a mixture of […] nitrous oxide and 1:3 oxygen). The animal was suspended by its tail, the rectum was gently emptied with a cotton-capped stalk, and a coloscope was inserted through the anus. This designed endoscope has a lateral slot that allows for puncture of the intestinal wall under visual control, using a 51-mm-long needle (26 ga), at about 35 mm from the anal margin. Injected solutions were either 50 µL 5% formalin, or the same volume of isotonic saline. Animals were allowed to recover from anesthesia as soon as the injection was completed (about 1 minute), and the observation period was started and continued for 2 hours. Thirty minutes after the end of the observation test, an IV injection of Evans Blue (1%) was administered, and 30 minutes later the animal was sacrificed. The abdomen was opened. The injection site and the zone of diffusion of Evans Blue were recorded by image analysis software. Data from rats in which the spread of the dye was not restricted to the sigmoid wall were discarded.
As listed in increasing order of pain intensity, these behaviors were: (i) abdominal licking and nibbling (L), (ii) body stretching, i.e., backward extension of the hind limbs (B), (iii) contraction of the flanks, sometimes evolving to a stretching attitude (C), and (iv) whole body contraction, the rat standing with its back curved, occasionally further graded according to the duration of the given episode: W1 for less than 30 seconds, W2 between 30 seconds and 1 minute, and W3 for more than 1 minute. Behaviors were recorded for each animal throughout the 2-hour test on individual charts. A pain score (S) was then calculated for each of the successive 15-minute periods, using the following formula: S = 1L + 2B + 3C + 4W1 + 5W2 + 6W3 [formula] whereby the pain score was proportional to (i) the number of episodes of each selected behavior, and (ii) the coefficient, from 1 to 6, attributed to the given behaviors.
All compounds were dissolved in saline. Subcutaneous injection of vehicle was given in a volume of […]. Formalin was purchased from Prolabo.
Statistical significance between each group was determined by using a one-way ANOVA followed by Student's unpaired t-test. Differences were considered statistically significant at p <0.05.
Hyperalgesia is induced by intramural injection of formalin (5%, 50 µL/rat) into the colonic wall in unfasted female Sprague-Dawley rats. Gabapentin and CI-1008 were tested at 100, 300, 500 and 100, 200 mg/kg sc, respectively. […] The maximal inhibitory effect was observed after 500 mg/kg of gabapentin and 200 mg/kg of CI-1008.

The subject of experiment [2] is LPS-Induced Delayed (12 Hours) Allodynia. Nature of the experiment: LPS-induced delayed (12 hours) rectal allodynia in rats. Type of experiment: in vivo, Male Wistar rats. From the text: The GABA analogs also have been evaluated for their ability to control and treat gastrointestinal disorders characterized as IBD and IBS. The assay utilized to evaluate the GABA analogs measures the effects of compound on lipopolysaccharide-induced delayed rectal allodynia in rats. Intraperitoneal (IP) injections of the endotoxin lipopolysaccharide (LPS) are known to induce long-lasting hyperalgesia in somatic pain models. The following assay was designed to evaluate the effect of IP injections of LPS on pain visceral threshold in an experimental model of rectal distension.
Male Wistar rats weighing 250 to 350 g were surgically prepared for electromyography, according to a previously described technique. Rats were anesthetized by i.p. injection of acepromazine and ketamine (Imalgene 1000, Rhöne-Mérieux, Lyon, France) at doses of 0.6 and 120 mg/kg, respectively. […] Electrodes were exteriorized on the back of the neck and protected by a glass tube attached to the skin. Animals were individually housed in polypropylene cages and kept in a temperature-controlled room (21°C). They were allowed free access to water and food (UAR pellets, Epinay, France).
Electromyographic recording began 5 days after surgery. The electrical activity of abdominal striated muscles was recorded with an electroencephalograph machine (Mini VIII, Alvar, Paris, France) using a short-time constant (0.03 sec) to remove low-frequency signals (<3 Hz) and a paper speed of 3.6 cm/minute.
Rats were placed in plastic tunnels (6 cm diameter; 25 cm length) where they could not move, escape or turn around, in order to prevent damage to the balloon. They are accustomized to this procedure for 3 or 4 days before rectal distension (RD) in order to minimize stress reaction during experiments. […] The balloon used for distension was an arterial embolectomy catheter (Fogarty, Edwards Laboratories, Inc., Santa Ana, USA). RD was performed by insertion of the balloon (2-mm diameter; 2-cm long) in the rectum, at 1 cm of the anus, the catheter being fixed at the tail. It was inflated progressively by step of 0.4 mL, from 0 to 1.6 mL, each step of inflation lasting 5 minutes. To detect possible leakage, the volume of water introduced in the balloon was checked by complete removal with a syringe at the end of the distension period.
In a second series of experiments, the same group of 8 rats received IP lipopolysaccharide (E Coil, serotype 0111:B4) or its vehicle, at a dose of 1 mg/kg IP, 1 hour after a control rectal distension. […]
Statistical analysis of the number of abdominal contractions occurring during each 5-minute period during RD was performed by one-way ANOVA followed by Student's paired t-test. Values were expressed as the mean ± SEM, and differences were considered significant for p <0.05.

Consider `CC(C)C[C@H](CN)CC(=O)O` [CI-1008, (S)-3-(aminomethyl)-5-methylhexanoic acid], for which the entries for the “% Antinociception” value in experiment [1] (100 mg/kg sc) and in experiment [1] (200 mg/kg sc) were 18.55% and 70.81%, respectively. For the same molecule, in experiment [1], the “pain score induced by intracolonic formalin (in words)” value is “significantly and dose-dependently decreased”.
In the case of `NCC1(CC(=O)O)CCCCC1` [Gabapentin, 1-(aminomethyl)-cyclohexane acetic acid], the “Number of abdominal contractions/5 minutes” value is 0.7 ± 0.5 abdominal contractions/5 minutes in experiment [2] (LPS (1 mg/kg) + Gabapentin (3.0 mg/kg (so in the source)) IP 30 min before distension, 12 hours after LPS, 0.4 mL, LPS + vehicle 9.7 ± 1.0, p <0.001); 11.9 ± 0.8 abdominal contractions/5 minutes in experiment [2] (LPS (1 mg/kg) + Gabapentin (3.0 mg/kg (so in the source)) IP, 0.8 mL, LPS + vehicle 11.7 ± 1.2); 16.3 ± 3.2 abdominal contractions/5 minutes in experiment [2] (LPS (1 mg/kg) + Gabapentin (3.0 mg/kg (so in the source)) IP, 1.2 mL, LPS + vehicle 23.5 ± 2.2). Besides, the “% of reduction vs "LPS/vehicle"” value in experiment [2] (LPS (1 mg/kg) + Gabapentin (3.0 mg/kg (so in the source)) IP, 0.4 mL) is on record as -92.8%. Besides, the “% Antinociception” value is given as -7.73% in experiment [1] (0.3 mg/kg sc (so in the source)), 13.62% in experiment [1] (100 mg/kg sc), 55.07% in experiment [1] (300 mg/kg sc) and 88.01% in experiment [1] (500 mg/kg sc). In addition, the “pain score induced by intracolonic formalin (in words)” value in experiment [1] was “significantly and dose-dependently decreased”.

Source of the values: patent publication EP0974351A2, “Medicament for preventing and treating gastrointestinal damage” (JOUVEINAL, priority 1998, dated 2000).
